{"source": "patent US10471028B2", "about": "“Small molecule efflux pump inhibitors” (UNIVERSITY OF ROCHESTER, priority 2014, dated 2019)", "data": [{"system": "A. baumannii strain 98-37-09", "assay": "MEC determination: potentiation of minocycline toward serum grown A. baumannii", "format": "cell-based, Acinetobacter baumannii", "conditions": "1×MEC of compound plus minocycline in serum, versus minocycline alone; plating", "protocol": "(§1) The TimTec ActiProbe-25K diversity-set and Natural Product compound libraries (29,900 compounds total; TimTec, Newark, Del.) were initially screened for putative efflux pump inhibitors by identifying compounds that potentiated the antimicrobial property of a sub-inhibitory concentration of minocycline toward A. baumannii grown in human serum. To do so, A. baumannii strain 98-37-09 was grown for 16 hours in LB medium at 37° C. on a rotary shaker at 225 rpm. Approximately 1×10^5 CFU were then transferred to individual wells of a 96-well round-bottom plate (Corning Costar, Tewksbury, Mass.) containing 100 μL of human serum supplemented with of minocycline (0.5 μg mL^−1; 0.5× minimum inhibitory concentration in serum) and individual members of the Timtec ActiProbe or Natural product library (50 μM). Plates were then incubated at 37° C. for 48 hours. Growth was measured as a function of turbidity. Putative efflux pump inhibitors were identified as compounds that inhibited A. baumannii growth in human serum containing minocycline and were subsequently retested in triplicate, as indicated above. Untreated A. baumannii grown in serum supplemented with minocycline+/−PAβN served as positive and negative controls, respectively. […] Repeat testing in which well constituents were serial diluted and plated on LB agar plates validated that 85 compounds did indeed limit A. baumannii growth in serum supplemented with minocycline, reducing the number of viable colony forming units between 2-6 log cfu in comparison to minocycline alone treated cells.\n(§2) The MEC was defined as the lowest concentration of test compound required to inhibit the growth of A. baumannii in serum in the presence of 0.5 μg ml^−1 minocycline. Plating confirmed that addition of 1×MEC of each compound elicited ≥1.9-log reduction in A. baumannii cells grown in serum supplemented with minocycline alone (see Table 1).", "units": {"Log-reduction Colony Forming Units (ml^−1)": "log"}, "values": [{"smiles": "N#CC1=C(N)n2c(s/c(=C\\c3ccccc3Cl)c2=O)=C(C#N)C1c1ccccc1Cl", "note": "(stereo not drawn) [ST006953]", "Log-reduction Colony Forming Units (ml^−1)": 2.71}, {"smiles": "Cc1ccc(C2N(Cc3ccccc3)CCN2Cc2ccccc2)s1", "note": "[ST008277]", "Log-reduction Colony Forming Units (ml^−1)": 5.19}, {"smiles": "Cc1cc(O)c(C(C)C)cc1C1(c2cc(C(C)C)c(O)cc2C)OC(=O)c2ccccc21", "note": "[ST009495]", "Log-reduction Colony Forming Units (ml^−1)": 2.23}, {"smiles": "Oc1ccccc1/C=N/c1nccs1", "note": "[ST009531]", "Log-reduction Colony Forming Units (ml^−1)": 2.77}, {"smiles": "NS(=O)(=O)c1ccc(/N=C/c2ccccc2O)cc1", "note": "[ST009655]", "Log-reduction Colony Forming Units (ml^−1)": 6.67}, {"smiles": "Cc1ccc(/C=N/c2ccc(S(N)(=O)=O)cc2)cc1", "note": "[ST009696]", "Log-reduction Colony Forming Units (ml^−1)": 5.67}, {"smiles": "CCOC(=O)C1=C(N)OC2=C(C(=O)CCC2)C1c1sccc1C", "note": "(stereo not drawn) [ST009847]", "Log-reduction Colony Forming Units (ml^−1)": 4.97}, {"smiles": "N#CC1=C(N)OC2=C(C(=O)CCC2)C1c1c(Cl)cccc1Cl", "note": "(stereo not drawn) [ST009850]", "Log-reduction Colony Forming Units (ml^−1)": 2.47}, {"smiles": "O=C(N/N=C/c1cccs1)c1ccncc1", "note": "[ST010260]", "Log-reduction Colony Forming Units (ml^−1)": 2.66}, {"smiles": "NS(=O)(=O)c1ccc(/N=C/c2cc(Br)ccc2O)cc1", "note": "[ST010344]", "Log-reduction Colony Forming Units (ml^−1)": 5.29}, {"smiles": "O=S(=O)(Nc1nccs1)c1ccc(/N=C/c2ccc3c(c2)OCO3)cc1", "note": "[ST012901]", "Log-reduction Colony Forming Units (ml^−1)": 2.66}, {"smiles": "N=C(N)NS(=O)(=O)c1ccc(/N=C/c2c(O)ccc3ccccc23)cc1", "note": "[ST012929]", "Log-reduction Colony Forming Units (ml^−1)": 4.64}, {"smiles": "O=S(=O)(Nc1nccs1)c1ccc(/N=C/c2c(O)ccc3ccccc23)cc1", "note": "[ST012934]", "Log-reduction Colony Forming Units (ml^−1)": 4.42}, {"smiles": "O=[N+]([O-])c1cc(/C=N/c2ccc(S(=O)(=O)NC3NC=CS3)cc2)c2c(c1)COCO2", "note": "(stereo not drawn) [ST012941]", "Log-reduction Colony Forming Units (ml^−1)": 6.23}, {"smiles": "O=S(=O)(Nc1nccs1)c1ccc(/N=C/c2cc(Cl)cc3c2OCOC3)cc1", "note": "[ST012955]", "Log-reduction Colony Forming Units (ml^−1)": 4.42}]}, {"system": "A. baumannii strain 98-37-09", "assay": "MEC determination: potentiation of minocycline toward serum grown A. baumannii", "format": "cell-based, Acinetobacter baumannii", "conditions": "lowest concentration inhibiting growth in 100% human serum with 0.5 μg ml^−1 minocycline, 48 hr", "protocol": "as §1, §2", "units": {"MEC": "µg/mL"}, "values": [{"smiles": "N#CC1=C(N)n2c(s/c(=C\\c3ccccc3Cl)c2=O)=C(C#N)C1c1ccccc1Cl", "note": "(stereo not drawn) [ST006953]", "MEC": 4}, {"smiles": "Cc1ccc(C2N(Cc3ccccc3)CCN2Cc2ccccc2)s1", "note": "[ST008277]", "MEC": 4}, {"smiles": "Cc1cc(O)c(C(C)C)cc1C1(c2cc(C(C)C)c(O)cc2C)OC(=O)c2ccccc21", "note": "[ST009495]", "MEC": 2}, {"smiles": "Oc1ccccc1/C=N/c1nccs1", "note": "[ST009531]", "MEC": 2}, {"smiles": "NS(=O)(=O)c1ccc(/N=C/c2ccccc2O)cc1", "note": "[ST009655]", "MEC": 2}, {"smiles": "Cc1ccc(/C=N/c2ccc(S(N)(=O)=O)cc2)cc1", "note": "[ST009696]", "MEC": 4}, {"smiles": "CCOC(=O)C1=C(N)OC2=C(C(=O)CCC2)C1c1sccc1C", "note": "(stereo not drawn) [ST009847]", "MEC": 2}, {"smiles": "N#CC1=C(N)OC2=C(C(=O)CCC2)C1c1c(Cl)cccc1Cl", "note": "(stereo not drawn) [ST009850]", "MEC": 2}, {"smiles": "O=C(N/N=C/c1cccs1)c1ccncc1", "note": "[ST010260]", "MEC": 16}, {"smiles": "NS(=O)(=O)c1ccc(/N=C/c2cc(Br)ccc2O)cc1", "note": "[ST010344]", "MEC": 32}, {"smiles": "O=S(=O)(Nc1nccs1)c1ccc(/N=C/c2ccc3c(c2)OCO3)cc1", "note": "[ST012901]", "MEC": 2}, {"smiles": "N=C(N)NS(=O)(=O)c1ccc(/N=C/c2c(O)ccc3ccccc23)cc1", "note": "[ST012929]", "MEC": 32}, {"smiles": "O=S(=O)(Nc1nccs1)c1ccc(/N=C/c2c(O)ccc3ccccc23)cc1", "note": "[ST012934]", "MEC": 32}, {"smiles": "O=[N+]([O-])c1cc(/C=N/c2ccc(S(=O)(=O)NC3NC=CS3)cc2)c2c(c1)COCO2", "note": "(stereo not drawn) [ST012941]", "MEC": 64}, {"smiles": "O=S(=O)(Nc1nccs1)c1ccc(/N=C/c2cc(Cl)cc3c2OCOC3)cc1", "note": "[ST012955]", "MEC": 32}]}, {"system": "A. baumannii strain 98-37-09", "assay": "Cellular accumulation of minocycline (HPLC, triple-quadrupole MS)", "format": "cell-based, Acinetobacter baumannii", "conditions": "human serum with 0.5 μg mL^−1 minocycline plus test compound (0.5×MEC, 1×MEC), 48 hours", "protocol": "High pressure liquid chromatography and triple-quadrupole mass spectrometry were used to measure the A. baumannii intracellular levels of minocycline during growth in human serum in the absence and presence of each putative efflux pump inhibitor. […] Cultures were incubated for 48 hours with shaking, at which point an aliquot was removed, serially diluted, and plated to determine the number of viable CFU per mixture. The remainder of the cells were pelleted by centrifugation at 900×g at 4° C., washed twice in PBS, mechanically lysed with a FastPrep cell disrupter (MP Biomedicals, Santa Ana, Calif.) for 20 seconds at 5 m s^−1 and the cellular debris was pelleted via centrifugation at 900×g and 4° C. The amount of minocycline present within the supernatant of ruptured cells was measured. Briefly, doxycycline (0.5 μg mL^−1) was first added to each supernatant to serve as an internal control to account for sample-to-sample preparation variability. The supernatant was then combined with acetonitrile (ACN) at a 1:10 ratio and centrifuged at 16,000×g, at 4° C., to collect minocycline and doxycycline. […] residual liquid was evaporated in a speed vacuum for 2 hours at 8,000×g. To quantify the amount of antibiotics retained, sample materials were suspended in 50% acetonitrile, filtered through a 0.2 μm low protein binding hydrophilic membrane (Millipore, Billerica, Mass.) then separated on Shimadzu high performance liquid chromatography instrument (Fisher Scientific) using a BetaBasic C18 reverse phase column (Thermo Scientific). Separation was carried out with two mobile phase solutions consisting of solution (A) water with 0.1% formic acid and solution (B) 100% ACN. The gradient profile of the chromatography runs was as follows: from 0 to 0.1 min 8% solution B, ramp step wise (37% to 60% solution B) from 0.1 to 6.5 min then holding for one minute before ramping down from 60% to 10% from 7.5 to 8 min. This was followed a hold at 10% solution B for one minute. […] The column was equilibrated in 8% solution B at 40° C. and the flow rate was set to 0.2 mL min^−1. Mass spectrometry analysis of fractions was carried out using a Thermo TSQ Quantum Ultra triple quadrupole mass spectrometer (Fisher Scientific). Data were analyzed using Xcalibur software (Thermo Scientific); the following parameters were used to detect minocycline and the internal control doxycycline: 458.208 m/z→282.971 m/z (collision energy=43, tube lens=119) for minocycline and 445.144 m/z→266.900 m/z (collision energy=39, tube lens=127) for doxycycline. Analysis of the raw data was conducted by using the area under the curve calculations with the Genesis algorithm to determine the concentration in each sample. The difference between the peak intensity and the y intercept of pre-established minocycline and doxycycline standard curves was divided by the slope of the standard curve to quantify the amount of minocycline within each sample. The total concentration of minocycline within each cell was calculated by normalizing to the number of cells within each corresponding culture.", "units": {"Minocylcine Per Cell (femtomoles cell^−1)": "femtomoles cell^−1"}, "values": [{"smiles": "N#CC1=C(N)n2c(s/c(=C\\c3ccccc3Cl)c2=O)=C(C#N)C1c1ccccc1Cl", "note": "(stereo not drawn) [ST006953]", "Minocylcine Per Cell (femtomoles cell^−1)": "4.31E−08"}, {"smiles": "Cc1ccc(C2N(Cc3ccccc3)CCN2Cc2ccccc2)s1", "note": "[ST008277]", "Minocylcine Per Cell (femtomoles cell^−1)": "4.41E−08"}, {"smiles": "Cc1cc(O)c(C(C)C)cc1C1(c2cc(C(C)C)c(O)cc2C)OC(=O)c2ccccc21", "note": "[ST009495]", "Minocylcine Per Cell (femtomoles cell^−1)": "4.7E−08"}, {"smiles": "Oc1ccccc1/C=N/c1nccs1", "note": "[ST009531]", "Minocylcine Per Cell (femtomoles cell^−1)": "5.88E−09"}, {"smiles": "NS(=O)(=O)c1ccc(/N=C/c2ccccc2O)cc1", "note": "[ST009655]", "Minocylcine Per Cell (femtomoles cell^−1)": "2.61E−07"}, {"smiles": "Cc1ccc(/C=N/c2ccc(S(N)(=O)=O)cc2)cc1", "note": "[ST009696]", "Minocylcine Per Cell (femtomoles cell^−1)": "8.2E−09"}, {"smiles": "CCOC(=O)C1=C(N)OC2=C(C(=O)CCC2)C1c1sccc1C", "note": "(stereo not drawn) [ST009847]", "Minocylcine Per Cell (femtomoles cell^−1)": "2.54E−07"}, {"smiles": "N#CC1=C(N)OC2=C(C(=O)CCC2)C1c1c(Cl)cccc1Cl", "note": "(stereo not drawn) [ST009850]", "Minocylcine Per Cell (femtomoles cell^−1)": "7.25E−08"}, {"smiles": "O=C(N/N=C/c1cccs1)c1ccncc1", "note": "[ST010260]", "Minocylcine Per Cell (femtomoles cell^−1)": "3.27E−08"}, {"smiles": "NS(=O)(=O)c1ccc(/N=C/c2cc(Br)ccc2O)cc1", "note": "[ST010344]", "Minocylcine Per Cell (femtomoles cell^−1)": "2.98E−08"}, {"smiles": "O=S(=O)(Nc1nccs1)c1ccc(/N=C/c2ccc3c(c2)OCO3)cc1", "note": "[ST012901]", "Minocylcine Per Cell (femtomoles cell^−1)": "4.16E−09"}, {"smiles": "N=C(N)NS(=O)(=O)c1ccc(/N=C/c2c(O)ccc3ccccc23)cc1", "note": "[ST012929]", "Minocylcine Per Cell (femtomoles cell^−1)": "2.74E−08"}, {"smiles": "O=S(=O)(Nc1nccs1)c1ccc(/N=C/c2c(O)ccc3ccccc23)cc1", "note": "[ST012934]", "Minocylcine Per Cell (femtomoles cell^−1)": "2.28E−08"}, {"smiles": "O=[N+]([O-])c1cc(/C=N/c2ccc(S(=O)(=O)NC3NC=CS3)cc2)c2c(c1)COCO2", "note": "(stereo not drawn) [ST012941]", "Minocylcine Per Cell (femtomoles cell^−1)": "8.12E−09"}, {"smiles": "O=S(=O)(Nc1nccs1)c1ccc(/N=C/c2cc(Cl)cc3c2OCOC3)cc1", "note": "[ST012955]", "Minocylcine Per Cell (femtomoles cell^−1)": "1.04E−08"}]}]}
